# Test results as given in patent publication US20110206612A1, “NOVEL SCREENS TO IDENTIFY AGENTS THAT MODULATE RETINAL BLOOD VESSEL FUNCTION AND PERICYTE FUNCTION AND DIAGNOSTIC AND THERAPEUTIC APPLICATION THEREFOR” (UNIVERSITY OF TECHNOLOGY, SYDNEY, priority 2002, published 2011).
# Where two headings read alike, the source gives them in different places.
# Experiments:
# [1] = system: pericytes stimulated by PACAP; assay: inhibition of PACAP-induced relaxation of pericytes on silicone substrate; type: cell-based
# Experimental: The contractile state of the pericyte was quantified by counting the number of wrinkles (N) and the length of each wrinkle (l) in the thin shin sheet of silicone. From these observations an index of contractility (Ci) was developed from […]. An experiment to determine the effect of vasoactive agents was conducted by first quantifying Ci with the pericyte in physiological buffer (“control”). The Ci was quantified after exposing the pericytes to a vasoactive agent and allowing the pericyte to reach a steady-state level of contractility, which usually took 10 minutes. The effect of the vasoactive agent was determined by dividing by the Ci in the control condition and multiplying by 100 to obtain an index of effect (Ie,%) that was either less than 100 (pericyte relaxed relative to control) or greater than 100 (pericyte contracted relative to control). As a further control, incubations with buffer alone for the complete duration of exposure to each vasoactive agent were performed in conjunction with each experiment.
# The present inventors further identified protein kinase A (PKA) as being affected by the increase in cAMP following the binding of PACAP or VIP. For this purpose cells were grown on silicone substrate and contacted by a 10^−8 M concentration of PACAP.
# The present inventors have also shown that the relaxing effect of PACAP on pericyte contraction was in part mediated by the intracellular pathway that mobilises Ca^2+ from intracellular stores.
# retinal pericytes = assay: cells; details: for effect on contractile state of retinal pericytes (in words): pericytes on silicone substrate, 10 minutes per concentration
# Experimental: A small volume of dimethylpolysiloxane (Sigma Chemical Co.) of either 60,000 cps (DMPS-60M) or 12,500 cps (DMPS-12M) viscosity was applied to 12 mm diameter glass cover slips. In some cases an intermediate viscosity dimethylpolysiloxane (30,000 cps) was prepared by blending 54% by weight of 60,000 cps dimethylpolysiloxane with 46% by weight of 12,500 cps dimethylpolysiloxane. The coated cover-slip was heated for 2 seconds using a Bunsen burner to induce cross-linking of the surface of the dimethylpolysiloxane and formation of a thin silicone rubber sheet bonded to the cover slip. After preparation, the cover slips were placed in 24-well tissue culture dishes and sterilised by UV irradiation overnight.
# Pericytes from primary cultures (first passage) were plated on the cover slips in DMEM supplemented with 10% FCS.
# The response of the cells to the antagonists was evaluated using phase contrast microscopy at room temperature. […] Cells were identified as relaxed when the tension wrinkles associated with them diminished in size, and completely relaxed when the wrinkles disappeared. Conversely, a pericyte contracted when there was an increase in the number and length of the wrinkles associated with the pericyte. During each experiment, an image of the pericytes was captured (videocamera and framegrabber) by the computer every minute. The wrinkles were analysed after the experiment from these captured images.
# In each of the experiments, the length of each clearly discerned wrinkle associated with the cell was measured 3 times, and the average of the lengths was tabulated. The two ends of a wrinkle were determined by the contrast difference from the background on the picture. The contrast settings on the computer, videocamera or framegrabber were set at the commencement of an experiment and then not changed during the course of an experiment. Similarly, the focus of the microscope was set at the commencement of the experiment and then not changed during the course of an experiment. The depth (level) of solution in the bath was also kept constant, by aspirating and injecting each new solution at the same rate. Thus the only change in the image of the wrinkle (contrast, length) was due to the tension induced in the silicone substrate by the pericyte. The wrinkles during each experimental condition were counted from the photographs with help of a Zeiss videoplan.
# The contractile state of the pericyte was quantified by counting the number of wrinkles (N) and the length of each wrinkle (l) in the thin shin sheet of silicone. From these observations an index of contractility (Ci) was developed from […]. An experiment to determine the effect of vasoactive agents was conducted by first quantifying Ci with the pericyte in physiological buffer (“control”). […] As a further control, incubations with buffer alone for the complete duration of exposure to each vasoactive agent were performed in conjunction with each experiment.
# For this purpose cells were grown on silicone rubber. On the day of experiment the cells were rinsed with HEPES-buffered solution for 20 min at room temperature. Then the pericytes were exposed to norepinephrine (N5785, Sigma, USA) at different concentrations (10^−6M, 10^−5M, 10^−4 M) by a rapid exchange of the entire solution. The pericytes were exposed to each new drug concentration for a total of 10 minutes, with an image of the pericytes taken every 1 min.
compound,measurement,setting,value
"Nc1ncnc2c1ncn2[C@@H]1O[C@@H]2COP(O)(=S)O[C@H]2[C@H]1O (single isomer, unassigned) [Rp-cAMPS, adenosine 3′,5′-cyclic monophosphothioate, Rp-isomer]",EC50,"[1]; 10^−8 M PACAP, 10, 30, 100 μM added sequentially, 10 minutes each, FIG. 6, read-out: EC50 of inhibition of the relaxing effect of PACAP",26 µM
"CC[C@H](C)[C@H](NC(=O)[C@H](CO)NC(=O)[C@H](CC(N)=O)NC(=O)[C@H](CC(C)C)NC(=O)[C@H](Cc1ccc(O)cc1)NC(=O)[C@H](CCCCN)NC(=O)[C@H](CCCCN)NC(=O)[C@@H](NC(=O)[C@H](C)NC(=O)[C@H](CCSC)NC(=O)[C@H](CCC(N)=O)NC(=O)[C@H](CCCCN)NC(=O)[C@H](CCCNC(=N)N)NC(=O)[C@H](CC(C)C)NC(=O)[C@H](CCCNC(=N)N)NC(=O)[C@@H](NC(=O)[C@H](Cc1ccc(O)cc1)NC(=O)[C@H](CC(N)=O)NC(=O)[C@H](CC(=O)O)NC(=O)[C@@H](NC(=O)[C@H](Cc1ccccc1)NC(=O)[C@@H](NC(=O)[C@H](C)NC(=O)[C@H](CC(=O)O)NC(=O)[C@H](CO)NC(=O)[C@@H](N)Cc1c[nH]cn1)C(C)C)[C@@H](C)O)[C@@H](C)O)C(C)C)C(=O)N[C@@H](CC(C)C)C(=O)N[C@@H](CC(N)=O)C(N)=O [VIP, vasoactive intestinal polypeptide]",EC50,"retinal pericytes; read-out: EC50 concentration, effect on contractility of pericytes (relaxation), contractility index below 100 = relaxed, data averaged from cells, FIGS. 4, 5",0.048 µM
"O=S(=O)(NCCNCC=Cc1ccc(Br)cc1)c1cccc2cnccc12 [H-89, N-(2-[p-bromocinnamylamino]-ethyl)-5-isoquinolinesulfonamid-e]",effect on the relaxing effect of PACAP,"[1]; 10^−8 M PACAP, inhibitor at 0.3 μM",inhibited the relaxing effect
O=C(O)c1ccccc1Nc1ccccc1 [N-phenylanthranilic acid],effect on contractile state of retinal pericytes (in words),retinal pericytes,can influence the contractile state of retinal pericytes
O=C(O)c1ccccc1Nc1cccc(C(F)(F)F)c1 [flufenamic acid],effect on contractile state of retinal pericytes (in words),retinal pericytes,can influence the contractile state of retinal pericytes
"NC[C@H](O)c1ccc(O)c(O)c1 [NE, norepinephrine]",effect on contractile state of retinal pericytes (in words),retinal pericytes,contracting in a dose-dependent manner
same,EC50,retinal pericytes; read-out: EC50 of pericyte contraction of silicone substrate,8 µM
same,concentration causing contraction of pericytes,"retinal pericytes; retinal pericytes, FIG. 3",greater than 10^−6 M
same,concentration giving maximum enhancement of contractile state of the pericytes,"retinal pericytes; retinal pericytes, FIG. 3",10^−4 M
"COc1ccc2c(c1)CC[C@@H]1[C@@H]2CC[C@]2(C)[C@@H](NCCCCCCN3C(=O)C=CC3=O)CC[C@@H]12 [U73122, 1-[6-([(17β)-3-Methoxyestra-1,3,5(10)-trien-17-yl]amino)hexyl]-1H-py-rrole-2,2-dione]",effect on PACAP-induced relaxation of pericytes,[1]; inhibitor at 10 μM,antagonist of the PACAP-induced relaxation of pericytes
"C[C@@H](C(=O)O)c1ccc(-c2ccccc2)c(F)c1 [R-flurbiprofen, flurbiprofen]",effect on contractile state of retinal pericytes (in words),retinal pericytes,can influence the contractile state of retinal pericytes
